Data: ChEMBL document CHEMBL1125021, “4-[(Carboxymethyl)oxy]- and 4-[(carboxymethyl)amino]-5,7-dichloroquinoline-2-carboxylic acid: new antagonists of the strychnine-insensitive glycine binding site on the N-methyl-D-aspartate receptor complex” (J Med Chem, 1990)

Columns and labels:
[1] = Antagonistic activity against N-methyl-D-aspartate glutamate receptor induced cGMP in rat cerebellar slices..; assay type: functional
[2] = biological target: Glutamate NMDA receptor; experiment: Binding activity against N-methyl-D-aspartate glutamate receptor in rat brain homogenate using [3H]CPP as the radioligand.; assay type: tissue-based
[3] = Selectivity ratio as the ratio of IC50 values for [3H]CPP/[3H]-gly
[4] = biological target: Glutamate NMDA receptor; experiment: Binding activity against N-methyl-D-aspartate glutamate receptor in rat brain homogenate using [3H]-glycine as the radioligand.; assay type: tissue-based

IC50 [1] [µM] | IC50 [2] [µM] | Ratio [3] | IC50 [4] [µM] | Compound
3.5 | 37 | 463 |  | O=C(O)c1cc(O)c2c(Cl)cc(Cl)cc2n1
225 | 893 | 99 | 9 | O=C(O)COc1cc(C(=O)O)nc2cc(Cl)cc(Cl)c12
8 |  | 405 |  | O=C(O)c1cc(O)c2ccc(Cl)cc2n1 [7-CHLOROKYNURENIC ACID]
3.6 | 140 | 1400 | 0.1 | O=C(O)CNc1cc(C(=O)O)nc2cc(Cl)cc(Cl)c12
